For the series the following is noted: for aqueous solubility: pH 6.8.

≈ marks a conversion by molar mass, not a printed value. A value given as a limit tells only on which side of the number the result lay.

Consider `Cc1nc(C)n(-c2ccccc2NC(=O)c2cc(C#N)cn2C)n1`, for which the intrinsic clearance, human liver microsomes worked out at 11.6 mL/min/kg and the intrinsic clearance, rat liver microsomes is 163 mL/min/kg.

The aqueous solubility is the dissolved amount per volume that the medium holds. In turn, `Clc1ccc2oc(/C=C/c3csnn3)nc2c1` registered an aqueous solubility of 0.19 µg/mL (≈ 0.72 µM).

For the compound `COc1ccc(-c2[nH]c3ncccc3c2CN(C)CCOc2ccccc2OC)cc1`, the MDR1-MDCK efflux ratio was 3.88 and the aqueous solubility was 0.3 µg/mL (≈ 0.719 µM).

Consider `CC(C)CCN1CCc2nc3cc(C4CC4)nn3c(O)c2C1`, for which the MDR1-MDCK efflux ratio turned out to be 9.05; the intrinsic clearance, human liver microsomes came out at 7.62 mL/min/kg; the intrinsic clearance, rat liver microsomes turned out to be 30.3 mL/min/kg.

On to `Cc1cc(N2CCCC2)nc(C2CCCN(C)C2)n1` (stereo unspecified), for which the fraction unbound, human plasma is 1; the fraction unbound, rat plasma was found to be 0.727; the intrinsic clearance, human liver microsomes amounted to 9.21 mL/min/kg; the intrinsic clearance, rat liver microsomes stood at 331 mL/min/kg.

`Cc1cc(=O)n(C)c2cc(N3C(=O)CC[C@H](NS(=O)(=O)CC(C)C)[C@H]3c3ccc(Cl)cc3)ccc12`: the MDR1-MDCK efflux ratio was found to be 1.48; the intrinsic clearance, human liver microsomes was found to be 370 mL/min/kg; the intrinsic clearance, rat liver microsomes was determined as 944 mL/min/kg; the aqueous solubility turned out to be 44.4 µg/mL (≈ 86 µM).

Turning to `CCc1c2c(nc3ccc(O)cc13)-c1cc3c(c(=O)n1C2)COC(=O)[C@]3(O)CC`, the MDR1-MDCK efflux ratio worked out at 50.8; the intrinsic clearance, human liver microsomes came to 18.3 mL/min/kg; the intrinsic clearance, rat liver microsomes is at most 10.7 mL/min/kg.

Consider `Cc1ccccc1-n1cc[nH]c(=O)c1=O`, for which the MDR1-MDCK efflux ratio is 1.26; the intrinsic clearance, human liver microsomes worked out at 5.09 mL/min/kg; the intrinsic clearance, rat liver microsomes is at most 10.7 mL/min/kg; the aqueous solubility stood at 58.4 µg/mL (≈ 289 µM).

Turning to `C=CC(=O)N1CCC[C@@H](n2nc(-c3cccc(C(=O)Nc4ccc(C(C)C)c(C)c4)c3)c3c(N)ncnc32)C1`, the MDR1-MDCK efflux ratio was determined as 34.9 and the aqueous solubility came out at 0.17 µg/mL (≈ 0.325 µM).

`Cc1cc(OCc2cc(C#N)ccc2F)ccc1N` yielded an aqueous solubility of 25.4 µg/mL (≈ 99.2 µM).

On to `Cc1csc(CN(C)c2ccnc(N(C)C)n2)n1`, for which the MDR1-MDCK efflux ratio amounted to 0.578; the intrinsic clearance, human liver microsomes stood at 11.8 mL/min/kg; the intrinsic clearance, rat liver microsomes worked out at 546 mL/min/kg; the aqueous solubility worked out at 45.8 µg/mL (≈ 174 µM).

On to `O=C1NCCCCC1NC(=O)N1CCc2sccc2C1` (stereo unspecified), for which the MDR1-MDCK efflux ratio worked out at 4.48; the intrinsic clearance, human liver microsomes worked out at 4.84 mL/min/kg; the intrinsic clearance, rat liver microsomes turned out to be 47 mL/min/kg; the aqueous solubility was 49.6 µg/mL (≈ 169 µM).

For `CCCCc1c(C)[nH]c2nc(N(Cc3cccs3)C(C)=O)nn2c1=O`, the MDR1-MDCK efflux ratio worked out at 26; the intrinsic clearance, human liver microsomes is 13.7 mL/min/kg; the intrinsic clearance, rat liver microsomes was 81 mL/min/kg; the aqueous solubility turned out to be 39 µg/mL (≈ 108 µM).

Turning to `CCS(=O)(=O)N1CC(CC#N)(n2cc(-c3ncnc4[nH]ccc34)cn2)C1`, the MDR1-MDCK efflux ratio came out at 202; the fraction unbound, human plasma was 0.239; the fraction unbound, rat plasma came to 1; the intrinsic clearance, human liver microsomes is at most 4.74 mL/min/kg. This compound also had an intrinsic clearance, rat liver microsomes of 19.2 mL/min/kg.

Consider `CN(C)Cc1ccc(-c2ccccc2C(=O)O)cc1`, for which the intrinsic clearance, human liver microsomes was at most 4.74 mL/min/kg; the intrinsic clearance, rat liver microsomes was at most 10.7 mL/min/kg; the aqueous solubility worked out at 30.5 µg/mL (≈ 119 µM).

For `O=c1c2cnccc2ncn1Cc1ccc2c(c1)CCCO2`, the MDR1-MDCK efflux ratio was determined as 0.724; the intrinsic clearance, human liver microsomes stood at 45.9 mL/min/kg; the intrinsic clearance, rat liver microsomes amounted to 281 mL/min/kg.

Take `O=C(Cn1cccc(C(=O)Nc2cccc(-n3cccn3)c2)c1=O)NC1CCCCC1`: the MDR1-MDCK efflux ratio was determined as 18.7 and the aqueous solubility was found to be 0.8 µg/mL (≈ 1.91 µM).

On to `CC(C)n1c(=O)cc(N[C@@H](C)c2ccccc2)[nH]c1=O`, for which the MDR1-MDCK efflux ratio is 58.2; the intrinsic clearance, human liver microsomes was at most 4.74 mL/min/kg; the intrinsic clearance, rat liver microsomes is 30.4 mL/min/kg.

Consider `CC#CC(=O)N1CC[C@@H](n2c(=O)n(-c3ccc(Oc4ccccc4)cc3)c3c(N)ncnc32)C1`, for which the MDR1-MDCK efflux ratio worked out at 28.9; the fraction unbound, human plasma was 0.0863; the fraction unbound, rat plasma came out at 0.0467; the intrinsic clearance, human liver microsomes was 21.3 mL/min/kg. Further, the intrinsic clearance, rat liver microsomes turned out to be 187 mL/min/kg and the aqueous solubility turned out to be 64.6 µg/mL (≈ 142 µM).

Turning to `O=C(O)c1cc(/N=N/c2ccc(S(=O)(=O)Nc3ccccn3)cc2)ccc1O`, the MDR1-MDCK efflux ratio came out at 0.459; the intrinsic clearance, human liver microsomes was at most 4.74 mL/min/kg; the intrinsic clearance, rat liver microsomes was found to be 50.5 mL/min/kg; the aqueous solubility was found to be 54.5 µg/mL (≈ 137 µM).

With `N#Cc1cccc(-c2ccc3[nH]ccc3c2)n1`, the MDR1-MDCK efflux ratio amounted to 0.528; the intrinsic clearance, human liver microsomes worked out at 299 mL/min/kg; the intrinsic clearance, rat liver microsomes is 657 mL/min/kg; the aqueous solubility was found to be 3.65 µg/mL (≈ 16.6 µM).

For the compound `COc1ccc([C@H]2c3[nH]c4ccc(Cl)cc4c3CCN2C(=O)Oc2ccc(Cl)cc2)cc1`, the MDR1-MDCK efflux ratio stood at 0.432; the fraction unbound, human plasma was found to be 0.326; the fraction unbound, rat plasma turned out to be 0.568; the aqueous solubility turned out to be 0.1 µg/mL (≈ 0.214 µM).

Turning to `Cn1ncc2c1CCc1sc(NC(=O)c3cccnc3)nc1-2`, the MDR1-MDCK efflux ratio worked out at 1.58; the intrinsic clearance, human liver microsomes stood at 16.6 mL/min/kg; the intrinsic clearance, rat liver microsomes worked out at 89.2 mL/min/kg; the aqueous solubility was determined as 10.8 µg/mL (≈ 34.7 µM).

In the case of `CC(=O)NCC(=O)N1[C@@H]2CC[C@H]1c1ccc(Nc3ncc(C(F)(F)F)c(NC4CCC4)n3)cc12`, the MDR1-MDCK efflux ratio stood at 29.1; the intrinsic clearance, human liver microsomes amounted to 20.8 mL/min/kg; the intrinsic clearance, rat liver microsomes came out at 90.9 mL/min/kg.

`COc1ccc(-c2onc(C)c2-c2cnn(-c3ccccc3)c2)c(O)c1` displayed an aqueous solubility of 0.25 µg/mL (≈ 0.72 µM).

As to `O=C(NCc1cccnc1)c1sccc1-c1ccccc1`, the MDR1-MDCK efflux ratio came to 1.1; the intrinsic clearance, human liver microsomes was 45.2 mL/min/kg; the intrinsic clearance, rat liver microsomes was found to be 867 mL/min/kg; the aqueous solubility came to 65.6 µg/mL (≈ 223 µM).

Turning to `CCc1ncc2c(n1)CN(c1ccnc(-c3ccccc3)n1)CC2`, the MDR1-MDCK efflux ratio was 0.485; the intrinsic clearance, human liver microsomes stood at 36.1 mL/min/kg; the intrinsic clearance, rat liver microsomes amounted to 259 mL/min/kg; the aqueous solubility is 34.9 µg/mL (≈ 110 µM).

For `Nc1ccnn1Cc1ccc(Cl)c(F)c1`, the intrinsic clearance, human liver microsomes is at most 4.74 mL/min/kg; the intrinsic clearance, rat liver microsomes worked out at 36.6 mL/min/kg; the aqueous solubility was found to be 41.1 µg/mL (≈ 182 µM).

`C[C@@H]1CCN(C(=O)CC#N)C[C@@H]1N(C)c1ncnc2[nH]ccc12`: the MDR1-MDCK efflux ratio came out at 41.1; the fraction unbound, human plasma was 0.981; the fraction unbound, rat plasma worked out at 0.559; the intrinsic clearance, human liver microsomes was at most 4.74 mL/min/kg. This compound also returned an intrinsic clearance, rat liver microsomes of 120 mL/min/kg and an aqueous solubility of 41.2 µg/mL (≈ 132 µM).

`CC(C)(C)OC(=O)N1CC=C(CCC(=O)NO)C1` returned an aqueous solubility of 44 µg/mL (≈ 172 µM).

Compound `O=C(Nc1nc2ccccc2[nH]1)C1CC(=O)N(c2cccc(C(F)(F)F)c2)C1` (stereo unspecified) gave an aqueous solubility of 0.82 µg/mL (≈ 2.11 µM).

Take `CCN(C/C=C\c1ccc(C2CCCCC2)c(Cl)c1)C1CCCCC1`: the fraction unbound, human plasma was 0.0014; the fraction unbound, rat plasma is 0.00541; the intrinsic clearance, human liver microsomes worked out at 47.5 mL/min/kg; the intrinsic clearance, rat liver microsomes is 591 mL/min/kg. This compound registered an aqueous solubility of 6.6 µg/mL (≈ 18.3 µM).

`CC(=O)Nc1sc2c(c1-c1nc3ccccc3s1)CCN(C(C)C)C2` yielded an intrinsic clearance, human liver microsomes of 34.8 mL/min/kg and an intrinsic clearance, rat liver microsomes of 231 mL/min/kg.

As for `CN(CCSc1ccc2nnnn2n1)Cc1ccccc1`, the MDR1-MDCK efflux ratio turned out to be 0.431; the intrinsic clearance, human liver microsomes worked out at 64.7 mL/min/kg; the intrinsic clearance, rat liver microsomes is at most 10.7 mL/min/kg.

On to `CCCc1cc(C(=O)Nc2ccc(-c3nnc(C)[nH]3)cc2)no1`, for which the MDR1-MDCK efflux ratio turned out to be 0.865; the intrinsic clearance, human liver microsomes was 131 mL/min/kg; the intrinsic clearance, rat liver microsomes amounted to 290 mL/min/kg.

For the compound `N#CCCN(C(=O)c1sccc1C#N)C12CC3CC(CC(C3)C1)C2`, the MDR1-MDCK efflux ratio came to 1.16; the intrinsic clearance, human liver microsomes came to 320 mL/min/kg; the intrinsic clearance, rat liver microsomes was found to be 1600 mL/min/kg; the aqueous solubility was 7.8 µg/mL (≈ 23 µM).

Consider `COc1ccc(-c2ccc(CN(CCN3CCOCC3)Cc3cccnc3)cc2)cc1`, for which the MDR1-MDCK efflux ratio came out at 1.48; the intrinsic clearance, human liver microsomes came to 447 mL/min/kg; the intrinsic clearance, rat liver microsomes came to 1580 mL/min/kg; the aqueous solubility was 63.2 µg/mL (≈ 151 µM).

`O=C1c2ccccc2C(=O)N1CCNc1ccc(F)cc1`: the MDR1-MDCK efflux ratio was 0.43; the intrinsic clearance, human liver microsomes came out at 87.6 mL/min/kg; the intrinsic clearance, rat liver microsomes turned out to be 615 mL/min/kg.

With `Cc1cc(Br)ccc1CN(C)C(=O)CO`, the MDR1-MDCK efflux ratio was 0.75; the intrinsic clearance, human liver microsomes is at most 4.74 mL/min/kg; the intrinsic clearance, rat liver microsomes was found to be 28.6 mL/min/kg.

`Cc1cc(Oc2ncccn2)ccc1NC(=O)c1c(C)oc(C)c1C`: the MDR1-MDCK efflux ratio came out at 0.8; the intrinsic clearance, human liver microsomes was at most 4.74 mL/min/kg; the intrinsic clearance, rat liver microsomes came to 122 mL/min/kg; the aqueous solubility was 55 µg/mL (≈ 163 µM).

Take `COCc1nn(CCCN2CCCCC2)c(=O)o1`: the MDR1-MDCK efflux ratio was determined as 0.662; the intrinsic clearance, human liver microsomes was at most 4.74 mL/min/kg; the intrinsic clearance, rat liver microsomes is 370 mL/min/kg.

`CSc1cnc(N2CCCN(c3ncc(SC)cn3)CC2)nc1`: the MDR1-MDCK efflux ratio came to 0.648; the intrinsic clearance, human liver microsomes worked out at 131 mL/min/kg; the intrinsic clearance, rat liver microsomes turned out to be 1850 mL/min/kg.

Consider `Cc1nccn1-c1cncc(N2CCN(CC3CCCC3)C(=O)C2)n1`, for which the MDR1-MDCK efflux ratio is 6.94; the intrinsic clearance, human liver microsomes turned out to be 19.7 mL/min/kg; the intrinsic clearance, rat liver microsomes came out at 540 mL/min/kg; the aqueous solubility worked out at 49.7 µg/mL (≈ 146 µM).

Take `Fc1ccc(-c2cc(C3CCNCC3)ccn2)cc1`: the intrinsic clearance, human liver microsomes is at most 4.74 mL/min/kg; the intrinsic clearance, rat liver microsomes is at most 10.7 mL/min/kg; the aqueous solubility came to 41 µg/mL (≈ 160 µM).

`O=C(COCC1CC1)N1CCCc2ncccc21`: the MDR1-MDCK efflux ratio worked out at 0.825; the intrinsic clearance, human liver microsomes was found to be 13.8 mL/min/kg; the intrinsic clearance, rat liver microsomes turned out to be 68 mL/min/kg; the aqueous solubility was 33.9 µg/mL (≈ 138 µM).

For `O=C(Cn1nc2n(c1=O)-c1ccccc1C1=NCCN12)N1CCCc2ccccc21`, the MDR1-MDCK efflux ratio is 7.27; the intrinsic clearance, human liver microsomes is 256 mL/min/kg; the intrinsic clearance, rat liver microsomes was 1670 mL/min/kg; the aqueous solubility was determined as 1.63 µg/mL (≈ 4.07 µM).
